Assay [1] addresses BChE (Homo sapiens, UniProt P06276). The experiment in a line: biochemical.
The target of assay [2] is T1, AChE (Homo sapiens, UniProt P22303). Put plainly: Kinetic study of AChE inhibition. The format is biochemical.
For assay [3], the target named is T1, AChE. Put plainly: biochemical. Particulars: for Selectivity for AChE: IC50 (BChE)/IC50 (AChE).

These results are taken from article PMC6309603 (Molecular diversity, 2018).

Read-outs that look alike come from different tables or passages of the source.

BChE, sequence (P06276 29-602): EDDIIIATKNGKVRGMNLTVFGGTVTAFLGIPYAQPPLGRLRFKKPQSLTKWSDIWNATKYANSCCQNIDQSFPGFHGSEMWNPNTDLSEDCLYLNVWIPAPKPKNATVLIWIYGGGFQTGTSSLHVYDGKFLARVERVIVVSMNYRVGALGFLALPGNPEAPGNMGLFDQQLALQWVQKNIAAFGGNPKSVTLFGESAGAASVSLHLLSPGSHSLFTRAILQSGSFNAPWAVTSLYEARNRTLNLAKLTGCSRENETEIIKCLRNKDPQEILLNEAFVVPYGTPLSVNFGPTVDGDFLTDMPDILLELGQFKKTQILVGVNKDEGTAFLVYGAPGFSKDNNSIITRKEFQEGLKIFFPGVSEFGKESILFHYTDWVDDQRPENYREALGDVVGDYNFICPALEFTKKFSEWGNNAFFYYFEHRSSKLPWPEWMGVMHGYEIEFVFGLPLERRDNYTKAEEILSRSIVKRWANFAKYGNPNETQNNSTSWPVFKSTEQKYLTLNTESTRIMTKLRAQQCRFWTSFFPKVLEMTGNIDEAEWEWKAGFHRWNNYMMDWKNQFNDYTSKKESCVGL
T1 sequence (P22303 32-614): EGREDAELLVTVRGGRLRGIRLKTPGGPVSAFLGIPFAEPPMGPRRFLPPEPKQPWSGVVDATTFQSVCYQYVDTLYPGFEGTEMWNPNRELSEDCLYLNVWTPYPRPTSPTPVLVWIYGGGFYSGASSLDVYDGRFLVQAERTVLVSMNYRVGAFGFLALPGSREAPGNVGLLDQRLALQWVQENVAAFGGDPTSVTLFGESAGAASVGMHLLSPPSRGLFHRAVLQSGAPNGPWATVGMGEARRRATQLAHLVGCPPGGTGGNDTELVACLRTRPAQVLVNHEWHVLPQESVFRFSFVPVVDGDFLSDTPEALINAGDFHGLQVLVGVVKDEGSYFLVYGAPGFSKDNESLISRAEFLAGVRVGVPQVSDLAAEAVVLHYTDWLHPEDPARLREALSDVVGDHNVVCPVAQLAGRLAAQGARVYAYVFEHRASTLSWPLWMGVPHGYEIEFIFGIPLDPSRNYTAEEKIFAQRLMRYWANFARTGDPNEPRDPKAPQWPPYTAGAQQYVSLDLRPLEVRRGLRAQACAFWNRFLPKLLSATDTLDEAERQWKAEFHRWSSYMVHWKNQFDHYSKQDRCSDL

A word on the IC50: it is the concentration needed to halve the response being measured. A word on the Ki: it is a dissociation constant, usually derived from enzyme kinetics or from competition with a known ligand. The low end stands for tighter binding, the high end for weaker binding. In the case of `O=C(/C=C/c1ccc(OCCN2CCCC2)cc1)c1cc2ccccc2oc1=O` [Compound 5e, (E)-3-(3-(4-(2-(pyrrolidin-1-yl)ethoxy)phenyl)acryloyl)-2H-chromen-2-one], the IC50 in assay [1] turned out to be 4.11 ± 0.16 µM. In assay [2], the Ki was found to be 0.11 µM. The “non-competitive constant (Ki′)” value in assay [2] (AChE, substrate acetylthiocholine iodide, pH 7.4, 30 °C) was determined as 0.19 µM. Also, the “inhibition mechanism against AChE” value in assay [2] (Lineweaver-Burk analysis) was “mixed-type inhibition”. Also, in assay [3], the IC50 turned out to be 0.15 ± 0.01 µM, the “inhibitory activity against AChE (in words)” value is reported as “potent inhibitory activity”, the “selectivity over BChE (in words)” value is “high selectivity” and the “Selectivity for AChE” value came out at 27.40.

As to `CN(C)C(=O)COc1cccc(/C=C/C(=O)c2cc3ccccc3oc2=O)c1` [Compound 10d, (E)-N,N-dimethyl-2-(3-(3-oxo-3-(2-oxo-2H-chromen-3-yl)prop-1-en-1-yl)phenoxy)acetamide], half-maximal inhibition in assay [1] (IC50) required 44 ± 2.37 µM. Further, in assay [3], the IC50 is above 500 µM and the “Selectivity for AChE” value was below 0.09.

Turning to `O=C(/C=C/c1cccc(OCC(=O)N2CCCC2)c1)c1cc2ccccc2oc1=O` [Compound 10e, (E)-3-(3-(3-(2-oxo-2-(pyrrolidin-1-yl)ethoxy)phenyl)acryloyl)-2H-chromen-2-one], the IC50 in assay [1] and in assay [3] was above 500 µM each time.

For `O=C(/C=C/c1cccc(OCC(=O)N2CCCCC2)c1)c1cc2ccccc2oc1=O` [Compound 10f, (E)-3-(3-(3-(2-oxo-2-(piperidin-1-yl)ethoxy)phenyl)acryloyl)-2H-chromen-2-one], in assay [1], the IC50 turned out to be 223 ± 11.5 µM. In assay [3], 152 ± 12.8 µM corresponded to half-maximal inhibition (IC50) and the “Selectivity for AChE” value came out at 1.46.

Consider `CN(C)C(=O)COc1ccccc1/C=C/C(=O)c1cc2ccccc2oc1=O` [Compound 11d, (E)-N,N-dimethyl-2-(2-(3-oxo-3-(2-oxo-2H-chromen-3-yl)prop-1-en-1-yl)phenoxy)acetamide], for which the IC50 in assay [1] and in assay [3] was above 500 µM in each case.

As to `O=C(/C=C/c1ccccc1OCC(=O)N1CCCC1)c1cc2ccccc2oc1=O` [Compound 11e, (E)-3-(3-(2-(2-oxo-2-(pyrrolidin-1-yl)ethoxy)phenyl)acryloyl)-2H-chromen-2-one], the IC50 in assay [1] and in assay [3] was above 500 µM throughout.

On to `O=C(/C=C/c1ccccc1OCC(=O)N1CCCCC1)c1cc2ccccc2oc1=O` [Compound 11f, (E)-3-(3-(2-(2-oxo-2-(piperidin-1-yl)ethoxy)phenyl)acryloyl)-2H-chromen-2-one], for which the IC50 in assay [1] is 106 ± 3.09 µM; in assay [3] it was above 500 µM.

In assay [1], `COc1cc(/C=C/C(=O)c2cc3ccccc3oc2=O)ccc1OCCN(C)C` [Compound 12k, (E)-3-(3-(4-(2-(dimethylamino)ethoxy)-3-methoxyphenyl)acryloyl)-2H-chromen-2-one] displayed an IC50 of 8.48 ± 0.29 µM. In addition, in assay [3], the IC50 came out at 1.65 ± 0.09 µM and the “Selectivity for AChE” value is 5.15.

As for `COc1cc(/C=C/C(=O)c2cc3ccccc3oc2=O)ccc1OCCN1CCCC1` [Compound 12l, (E)-3-(3-(3-methoxy-4-(2-(pyrrolidin-1-yl)ethoxy)phenyl)acryloyl)-2H-chromen-2-one], the IC50 in assay [1] was 0.46 ± 0.01 µM. Moreover, in assay [3], the IC50 amounted to 1.67 ± 0.04 µM and the “Selectivity for AChE” value stood at 0.28.

For `COc1cc(/C=C/C(=O)c2cc3ccccc3oc2=O)ccc1OCCN1CCCCC1` [Compound 12m, (E)-3-(3-(3-methoxy-4-(2-(piperidin-1-yl)ethoxy)phenyl)acryloyl)-2H-chromen-2-one], the IC50 in assay [1] stood at 0.52 ± 0.01 µM; in assay [3] it was 0.37 ± 0.02 µM. Moreover, the “Selectivity for AChE” value in assay [3] was determined as 1.41.

On to `COc1cc(/C=C/C(=O)c2cc3ccccc3oc2=O)cc(OC)c1OCCN(C)C` [Compound 13k, (E)-3-(3-(4-(2-(dimethylamino)ethoxy)-3,5-dimethoxyphenyl)acryloyl)-2-chromen-2-one], for which the IC50 in assay [1] (read-out: IC50 BChE, means±SD of three assays, 30 min, 30 °C, pH 8.0) was 13.2 ± 0.32 µM; in assay [3] (read-out: IC50 AChE, means±SD of three assays, 30 min, 30 °C, pH 8.0), 7.07 ± 0.46 µM. The “Selectivity for AChE” value in assay [3] was found to be 1.87.

With `COc1cc(/C=C/C(=O)c2cc3ccccc3oc2=O)cc(OC)c1OCCN1CCCC1` [Compound 13l, (E)-3-(3-(3,5-dimethoxy-4-(2-(pyrrolidin-1-yl)ethoxy)phenyl)acryloyl)-2H-chromen-2-one], the 50% inhibitory concentration (IC50) in assay [1] is 13.6 ± 0.53 µM. Besides, in assay [3], the IC50 came to 29 ± 1.68 µM and the “Selectivity for AChE” value stood at 0.47.

In assay [1], `COc1cc(/C=C/C(=O)c2cc3ccccc3oc2=O)cc(OC)c1OCCN1CCCCC1` [Compound 13m, (E)-3-(3-(3,5-dimethoxy-4-(2-(piperidin-1-yl)ethoxy)phenyl)acryloyl)-2H-chromen-2-one] yielded an IC50 of 6.41 ± 0.36 µM. In assay [3], the IC50 was determined as 9.58 ± 0.8 µM and the “Selectivity for AChE” value worked out at 0.67.
